{"source": "paper PMC4198181", "about": "“Gold(I) Complexes of 9-Deazahypoxanthine as Selective Antitumor and Anti-Inflammatory Agents” (PLoS ONE, 2014)", "system": "polymorphonuclear cells infiltration in hind paw tissue", "test": "Ex vivo histological evaluation of hind paw tissue (HE staining, PMN infiltration)", "type": "in vivo, Wistar-SPF rats", "details": "6 h after carrageenan, Indomethacin 5 mg/kg", "protocol": "The carrageenan-induced hind paw edema model was used for the determination of anti-inflammatory activity. Animals were i.p. pretreated with complexes 2, 4, and 5 (the dosages of the individual complexes were adjusted to contain the same amount of gold as in 10 mg/kg dose of Auranofin), Indomethacin (5 mg/kg), or 25% DMSO (v/v in water) 30 min prior to the injection of 1% λ-carrageenan solution (50 µL) into the plantar side of right hind paws of the rats. The paw volume was measured immediately after the carrageenan injection (this value was set-up as baseline value for the hind paw volume) and during the next 6 h after the administration of the edematogenic agent using a plethysmometer (model 7159, Ugo Basile, Varese, Italy). The degree of swelling was evaluated as a percentage of the change of the volume of the right hind paw after the carrageenan treatment from the baseline volume. A non-steroidal anti-inflammatory drug Indomethacin was used as a positive control and the obtained data were also compared with the previously reported profile of antiedematous activity for Auranofin [38]. After 6 h, the animals were sacrificed and the edematous feet were dissected, the tissue from the plantar parts was extracted, fixed and stained by a standard hematoxylin/eosin (HE) staining for cytological evaluation of polymorphonuclear cells infiltration.\nTo assess the tissue consequences connected with the reduction of inflammation caused by the tested compounds after the intraplantar injection of carrageenan, the histopathological observations were made on the tissue sections obtained from the laboratory animals after the plethysmometric experiments were finished. All animals were sacrificed by cervical dislocation, and immediately after that, the tissue samples were taken from the plantar area of hind paws. The histopathological changes in tissues, stained by the standard HE staining (see Figure 10), were evaluated by the presence of the inflammation infiltrate, which contained mainly neutrophils (polymorphonuclear cells - PMN)."}
{"compound": "COc1ccc2c(c1)c(CC(=O)O)c(C)n2C(=O)c1ccc(Cl)cc1", "note": "[Indomethacin, reference compound]", "values": [{"measurement": "PMN (neutrophil) infiltrate in hind paw tissue sections", "result": "mainly scarce and diffuse"}]}
